For the test, the system named is Treg cells (CD4+CD25highFoxP3+). Kind of test: Antigen-specific tolerogenic dendritic cells (tDC) activity on Treg cell development. In kind it is cell-based, OTII mice. As to conditions: FIG. 3; tDC cultured with OTII T cells 4-5 days, flow cytometry. The protocol:
The assay included the use of OTII mice which have a transgenic T cell receptor specific for an immune-dominant ovalbumin peptide (323-339). In order to create antigen-specific tDCs, CD11c^+ splenocytes were isolated, and the ovalbumin peptide (323-339) added in vitro at 1 μg/ml or no antigen. Soluble or nanocarrier-encapsulated rapamycin was then added to the DCs for 2 hours which were then washed extensively to remove free rapamycin from the culture. Purified responder CD4^+CD25^− cells were isolated from OTII mice and added to tDC at a 10:1 T to DC ratio. The mixture of tDC and OTII T cells were then cultured for 4-5 days, and the frequency of Treg cells (CD4^+CD25highFoxP3^+) were analyzed by flow cytometry as shown in FIG. 1. Regions were selected based on isotype controls.
Free rapamycin or synthetic nanocarriers containing rapamycin were combined with free soluble Ovalbumin (323-339) to evaluate induction of tDC (FIG. 2). […] Briefly, antigen specific tDC were obtained by isolating dendritic cells (CD11c^+ splenocytes) and culturing them in combination with the Ovalbumin (323-339) peptide plus soluble or nanocarrier encapsulated rapamycin (Synthetic Nanocarrier #s 13, 14, 15 and 16) for 2 hours followed by extensive washing. […] The mixture of tDC and OTII T cells were then cultured for 4-5 days, and the frequency of Treg cells (CD4^+CD25highFoxP3^+) were analyzed by flow cytometry.

Structures are written as SMILES.

Take `CO[C@H]1C[C@@H]2CC[C@@H](C)[C@@](O)(O2)C(=O)C(=O)N2CCCC[C@H]2C(=O)O[C@H]([C@H](C)C[C@@H]2CC[C@@H](O)[C@H](OC)C2)CC(=O)[C@H](C)/C=C(\C)[C@@H](O)[C@@H](OC)C(=O)[C@H](C)C[C@H](C)/C=C/C=C/C=C/1C` [rapamycin]: the “induction of FoxP3 expressing cells” value turned out to be 2.7%.
